Test results from article PMC8892231 (EMBO Reports, 2021).

Legend:
qC10ORF99 promoter = assay: Luciferase reporter assay, Japanese quail C10ORF99 promoter in HEK293 cells; format: cell-based; settings: promoter-pGL4.14 (300 ng), sodium propionate or sodium acetate in serum-free medium for 12 h, normalized to β-galactosidase, vs parental PGL4.14 plasmid, n = 3
cGPR15‐A283L = assay: Intracellular calcium assay, reverse mutant cGPR15‐A283L; format: cell-based, Latimeria chalumnae; settings: CHO cells, Fluo-4 calcium assay; peptide 10 nM
cGPR15‐P246K = assay: Intracellular calcium assay, reverse mutant cGPR15‐P246K; format: cell-based, Lepisosteus oculatus/Scleropages formosus; settings: CHO cells, Fluo-4 calcium assay; peptide 10 nM

| activation of the mutant receptor based on Ca2+ measurements (cGPR15‐A283L) | activation of the mutant receptor based on Ca2+ measurements (cGPR15‐P246K) | Compound | luciferase activity of the promoter construct (qC10ORF99 promoter) |
| --- | --- | --- | --- |
|  |  | CC(=O)O [acetate] | significantly increased |
|  |  | CCC(=O)O [propionate] | significantly increased |
| activated | activated | AAPSPLFVPGPLPQL [qC10ORF99] |  |
